Measured values: patent US10786690B2, “Amide derivatives of polycaffeoylquinic acids, process for producing same and uses thereof” (TEMISIS, priority 2016, dated 2020)

Test system: female Balb/c mice
Assay: Imiquimod-induced psoriasis in Balb/c mice, PASI scoring
Format: in vivo, mouse
Procedure: The study is performed on 40 female Balb/c mice, weighing roughly 18-20 g and randomized by weight into 5 groups (n=8) as function of the treatments, under controlled temperature (24±2° C.) and humidity (50±20%) conditions and with a 12-hour reversed light cycle (light from 20:00 to 08:00) (food and water ad libitum).
The compounds to be tested are as follows: • Excipial® neutral ointment (control) • PAT1657 (octyl-isochlorogenamide A) incorporated at 1.33% or 2.67% by mass in Excipial® ointment • Aldara® cream containing 5% imiquimod, an inducer of psoriasis • Dermoval® cream containing 0.05% clobetasol propionate and used for topical treatment of psoriasis (reference product)
The treatment groups are distributed as follows: • Group 1: no induction of psoriasis but cutaneous application of neutral ointment from day 1 to day 10 and treatment with Excipial® neutral ointment from day 7 to day 10 (negative control) (EP/EP); • Group 2: induction of psoriasis by cutaneous application of Aldara® cream containing imiquimod from day 1 to day 10 and treatment with Excipial® neutral ointment from day 7 to day 10 (positive control) (ALD/EP); • Group 3: induction of psoriasis by cutaneous application of Aldara® cream containing imiquimod from day 1 to day 10 and treatment with neutral ointment containing 1.33% compound PAT1657 from day 7 to day 10 (ALD/PAT1657-1.33%); • Group 4: induction of psoriasis by cutaneous application of Aldara® cream containing imiquimod from day 1 to day 10 and treatment with neutral ointment containing 2.67% compound PAT1657 from day 7 to day 10 (ALD/PAT1657-2.67%); • Group 5: induction of psoriasis by cutaneous application of Aldara® cream containing imiquimod from day 1 to day 10 and treatment with Dermoval® cream from day 7 to day 10 (ALD/Dermoval®). Induction and Maintenance of Psoriasis
To perform the induction of psoriasis, it was necessary to remove the hair from the backs of the animals by shaving and plucking to have direct access to the skin tissue. Psoriasis was induced in all mice in groups 2 to 5 by daily cutaneous application for 10 days, from day 1 to day 10, of roughly 70 mg of Aldara® cream. The cream was applied to the shaved backs of the mice with a silk brush. For the mice in group 1, daily cutaneous application of Excipial® neutral ointment was carried out under the same conditions: roughly 70 mg was applied for 10 days, from day 1 to day 10, in the morning using a silk brush.
The ointments containing compound PAT1657 at the two doses to be tested, Excipial® neutral ointment and Dermoval® cream, were administered by cutaneous applications for 4 days, from day 7 to day 10, on the backs of the mice in the psoriasis induction region. For each application, roughly 100 mg of ointment or cream was applied with a silk brush, at least 4 hours after application of Aldara® cream or Excipial® neutral ointment for induction or not of psoriasis.
The psoriasis area and severity index (PASI) was calculated daily throughout the experiment from day 1 to day 11, based on the following three parameters: • Presence of erythema, i.e. skin redness, in the psoriasis induction region, scored as follows: 0=no or no further erythema; 1=mild erythema; 2=moderate erythema; 3=severe erythema; 4=very severe erythema. • Degree of induration, i.e. skin hardening and thickening, in the psoriasis induction region, scored as follows: 0=no or no further induration; 1=mild induration; 2=moderate induration; 3=severe induration; 4=very severe induration. • Degree of desquamation, i.e. presence of plaques on the skin surface, in the psoriasis induction region, scored as follows: 0=no or no further desquamation; 1=mild desquamation; 2=moderate desquamation; 3=severe desquamation; 4=very severe desquamation.
The psoriasis area and severity index is the sum of the scores for these three parameters. […]

[1] = day 8, 1.33% in ointment, vs ALD/EP group, p=0.001
[2] = day 10, 1.33% in ointment, vs ALD/EP group, p=0.001
[3] = day 10, 2.67% in ointment, vs ALD/EP group, p=0.001
[4] = day 11, 1.33% in ointment, vs ALD/EP group, p=0.001
[5] = day 11, 2.67% in ointment, vs ALD/EP group, p=0.001

CCCCCCCCNC(=O)[C@]1(O)C[C@@H](OC(=O)/C=C/c2ccc(O)c(O)c2)[C@@H](O)[C@H](OC(=O)/C=C/c2ccc(O)c(O)c2)C1 [PAT1657, (2E,2′E)-((1R,2S,3R,5S)-2,5-dihydroxy-5-(octylcarbamoyl)cyclohexane-1,3-diyl) bis(3-(3,4-dihydroxyphenyl)acrylate)]
mean psoriasis area and severity index (PASI) [1]: significantly lower | mean score for degree of induration in the psoriasis induction region [1]: significantly lower | mean score for presence of erythema in the psoriasis induction region [1]: significantly lower | mean score for degree of desquamation in the psoriasis induction region (day 8, 1.33% in ointment, vs ALD/EP group, p=0.007): significantly lower | mean psoriasis area and severity index (PASI) (day 8, 2.67% in ointment, vs ALD/EP group, p=0.001): significantly lower | mean score for degree of induration in the psoriasis induction region (day 8, 2.67% in ointment, vs ALD/EP group, p=0.004): significantly lower | mean score for degree of desquamation in the psoriasis induction region (day 8, 2.67% in ointment, vs ALD/EP group, p=0.006): significantly lower | mean score for presence of erythema in the psoriasis induction region (day 8, 2.67% in ointment, vs ALD/EP group, p=0.007): significantly lower | mean psoriasis area and severity index (PASI) (day 9, day 10 and day 11, 1.33% in ointment, vs ALD/EP group, p=0.001): significantly lower | mean psoriasis area and severity index (PASI) (day 9, day 10 and day 11, 2.67% in ointment, vs ALD/EP group, p=0.001): significantly lower | mean score for degree of induration in the psoriasis induction region (day 9, 1.33% in ointment, vs ALD/Dermoval group, p=0.015): significantly higher | mean score for degree of induration in the psoriasis induction region (day 9, 1.33% in ointment, vs ALD/EP group, p=0.001): significantly lower | mean score for presence of erythema in the psoriasis induction region (day 9, 1.33% in ointment, vs ALD/EP group, p=0.002): significantly lower | mean score for degree of induration in the psoriasis induction region (day 9, 2.67% in ointment, vs ALD/EP group, p=0.001): significantly lower | mean score for presence of erythema in the psoriasis induction region (day 9, 2.67% in ointment, vs ALD/EP group, p=0.002): significantly lower | mean score for degree of desquamation in the psoriasis induction region (day 9 and day 10, 1.33% in ointment, vs ALD/EP group, p=0.001): significantly lower | mean score for degree of desquamation in the psoriasis induction region (day 9 and day 10, 2.67% in ointment, vs ALD/EP group, p=0.001): significantly lower | mean score for degree of induration in the psoriasis induction region (day 10, 1.33% in ointment, vs ALD/Dermoval group, p=0.025): significantly higher | mean score for presence of erythema in the psoriasis induction region (day 10, 1.33% in ointment, vs ALD/Dermoval group, p=0.037): significantly lower | mean score for degree of induration in the psoriasis induction region [2]: significantly lower | mean score for presence of erythema in the psoriasis induction region [2]: significantly lower | mean score for degree of induration in the psoriasis induction region (day 10, 2.67% in ointment, vs ALD/Dermoval group, p=0.025): significantly higher | mean score for presence of erythema in the psoriasis induction region (day 10, 2.67% in ointment, vs ALD/Dermoval group, p=0.079): tendency to be significantly lower | mean score for degree of induration in the psoriasis induction region [3]: significantly lower | mean score for presence of erythema in the psoriasis induction region [3]: significantly lower | mean score for degree of desquamation in the psoriasis induction region (day 11, 1.33% in ointment, vs ALD/Dermoval group): significantly higher | mean score for presence of erythema in the psoriasis induction region (day 11, 1.33% in ointment, vs ALD/Dermoval group, p=0.001): significantly lower | mean score for degree of induration in the psoriasis induction region (day 11, 1.33% in ointment, vs ALD/Dermoval group, p=0.063): tendency to be significantly higher | mean score for degree of desquamation in the psoriasis induction region [4]: significantly lower | mean score for degree of induration in the psoriasis induction region [4]: significantly lower | mean score for presence of erythema in the psoriasis induction region [4]: significantly lower | mean score for presence of erythema in the psoriasis induction region (day 11, 2.67% in ointment, vs ALD/Dermoval group, p=0.014): significantly lower | mean score for degree of desquamation in the psoriasis induction region (day 11, 2.67% in ointment, vs ALD/Dermoval group, p=0.059): tended to be significantly higher | mean score for degree of desquamation in the psoriasis induction region [5]: significantly lower | mean score for degree of induration in the psoriasis induction region [5]: significantly lower | mean score for presence of erythema in the psoriasis induction region [5]: significantly lower
